Test results from PMC12040169 (PLOS Biology, 2025).

Assay: in vitro
Settings: human, hela cells, % viability

| SMILES | viability at 28.5 h, 10 µM [%] |
| --- | --- |
| CCc1nc2c(OCC3CCCCO3)cccn2c1N(C)C(=O)c1ccc2c(c1)OCO2 (stereo not shown) [CBK147860] | 82.9 |
| CCc1nc2c(OCc3ccccc3)cccn2c1N(C)C(=O)c1ccncc1 [CBK147876] | 90 |
| Cc1nc2c(OCc3ccccc3)cccn2c1N(C)C(=O)C1CCCCC1 [CBK147884] | 96.2 |
| CCc1nc2c(OCc3ccccc3)cccn2c1N(Cc1ccc(OC)cc1)C(C)=O [CBK147887] | 89.8 |
| CCc1nc2c(OCc3ccccc3)cccn2c1N(C)C(=O)Nc1ccccc1OC [CBK147890] | 98.7 |
| COc1ccccc1C(NC(=O)C1CCN(CCc2c[nH]c3ccccc23)CC1)c1ccccn1 (stereo not shown) [CBK147923] | 87.8 |
| COc1ccc(OCCN2CCC(C(=O)NC(c3ccccn3)c3ccccc3OC)CC2)cc1 (stereo not shown) [CBK147938] | 86.3 |
| O=C(NC(c1ccc(Cl)cc1)c1ccsc1)C1CCN(CCOc2ccccc2)CC1 (stereo not shown) [CBK147951] | 101 |
| O=C(NC(c1ccc(Cl)cc1)c1ccsc1)C1CCN(CCc2ccc(F)cc2)CC1 (stereo not shown) [CBK147976] | 88.4 |
| O=C(NC(c1ccc(-c2ccccc2)cc1)c1cnccn1)C1CCN(CCOc2ccc3ccccc3c2)CC1 (stereo not shown) [CBK147982] | 93.6 |
| O=C(NC(c1ccc(-c2ccccc2)cc1)c1cnccn1)C1CCN(C/C=C/c2ccccc2)CC1 (stereo not shown) [CBK147984] | 104 |
| CC(C)CN1CCC(C(=O)NC(c2ccc(Cl)cc2)c2cnccn2)CC1 (stereo not shown) [CBK148026] | 96.6 |
| CC(NC(=O)C1CCN(C2Cc3ccccc3C2)CC1)c1ccccc1 (stereo not shown) [CBK148031] | 95.7 |
| CC(NC(=O)C1CCN(Cc2cccnc2)CC1)c1ccc(F)cc1 (stereo not shown) [CBK148032] | 94.4 |
| CC(NC(=O)C1CCN(Cc2ncc[nH]2)CC1)c1ccc(F)cc1 (stereo not shown) [CBK148037] | 97 |
| CC(NC(=O)C1CCN(Cc2cccs2)CC1)c1ccc(F)cc1 (stereo not shown) [CBK148041] | 101 |
| COc1cc(/C=C/CN2CCC(C(=O)NC(C)c3ccc(F)cc3)CC2)ccc1OC(C)=O (stereo not shown) [CBK148061] | 90.1 |
| COc1cc(OC)nc(C(NC(=O)C2CCN(CCN3C(=O)c4ccccc4C3=O)CC2)c2ccc(F)cc2)n1 (stereo not shown) [CBK148083] | 103 |
| CCOCCN1CCC(C(=O)NC(c2ccc(F)cc2)c2nc(OC)cc(OC)n2)CC1 (stereo not shown) [CBK148087] | 98 |
| COc1cccc(CCN2CCC(C(=O)NC(c3ccc(F)cc3)c3nc(OC)cc(OC)n3)CC2)c1 (stereo not shown) [CBK148089] | 92.2 |
| COc1cc(OC)nc(C(NC(=O)C2CCN(CCc3c[nH]c4ccccc34)CC2)c2ccccc2C)n1 (stereo not shown) [CBK148101] | 104 |

| SMILES | viability at 28.5 h, 10 µM [%] |
| --- | --- |
| O=C(NC(c1ccc(F)cc1)c1ccc2ccccc2n1)C1CCN(CCCN2CCOCC2)CC1 (stereo not shown) [CBK148118] | 91.8 |
| COc1cc(OC)nc(C(NC(=O)C2CCN(Cc3cccn3C)CC2)c2ccc(F)cc2)n1 (stereo not shown) [CBK148170] | 104 |
| Cn1cc(CN2CCC(C(=O)NC(c3ccc4c(c3)OCO4)c3ccccn3)CC2)c2ccccc21 (stereo not shown) [CBK148183] | 94 |
| O=C(NC(c1ccccc1)c1ccco1)C1CCN(CCN2C(=O)c3ccccc3C2=O)CC1 (stereo not shown) [CBK148297] | 120 |
| CC(C)(C)C(=O)CN1CCC(C(=O)NC(c2ccccc2)c2ccco2)CC1 (stereo not shown) [CBK148298] | 109 |
| Cc1ccccc1C(c1ncccc1C)N(C)C(=O)C1CCN(Cc2ccc(Cl)c(Cl)c2)CC1 (stereo not shown) [CBK148366] | 92.2 |
| Cc1cccnc1C(c1ccc(F)cc1)N(C)C(=O)C1CCN(CCc2ccc(Br)cc2)CC1 (stereo not shown) [CBK148397] | 90.5 |
| CN(CCCN1CCC(C(=O)NC(c2cccnc2)c2ccc3c(c2)OCO3)CC1)S(C)(=O)=O (stereo not shown) [CBK148505] | 93.1 |
| O=C(NC(c1ccccc1)c1ccsc1)C1CCN(C2Cc3ccccc3C2)CC1 (stereo not shown) [CBK148541] | 80 |
| CC(NC(=O)C1CCN(CCOc2ccccc2)CC1)c1ccccc1 (stereo not shown) [CBK148610] | 91.5 |
| CC(NC(=O)C1CCN(CCc2ccccc2)CC1)c1ccccc1 (stereo not shown) [CBK148612] | 99.6 |
| CC(NC(=O)C1CCN(CCOc2ccc(F)cc2)CC1)c1cccc2ccccc12 (stereo not shown) [CBK148634] | 93.6 |
| CC(NC(=O)C1CCN(CCN2C(=O)c3ccccc3C2=O)CC1)c1ccc(F)cc1 (stereo not shown) [CBK148750] | 107 |
| C=CCN1CCC(C(=O)NC(C)c2cc(OC)ccc2OC)CC1 (stereo not shown) [CBK148762] | 116 |
| COc1ccc(OC)c(C(C)NC(=O)C2CCN(CCc3c[nH]c4ccccc34)CC2)c1 (stereo not shown) [CBK148763] | 99.2 |
| COc1ccc(OC)c(C(C)NC(=O)C2CCN(CCc3cccs3)CC2)c1 (stereo not shown) [CBK148766] | 98.8 |
| COc1ccc(C(NC(=O)C2CCN(CCOc3ccc4ccccc4c3)CC2)c2ccccc2C)cn1 (stereo not shown) [CBK148792] | 73.1 |
| O=C(NCC1COc2ccccc2O1)c1ccc2[nH]ccc2c1 (stereo not shown) [CBK149054] | 91.2 |
| O=C(NCc1ccc2occc2c1)c1ccc2[nH]ccc2c1 [CBK149055] | 89.7 |
| CSCCCNC(=O)c1ccc2[nH]ccc2c1 [CBK149056] | 100 |
| CN(C)CCNC(=O)c1ccc2[nH]ccc2c1 [CBK149062] | 112 |

| SMILES | viability at 28.5 h, 10 µM [%] |
| --- | --- |
| O=C(NCCc1ccc(O)cc1)c1ccc2[nH]ccc2c1 [CBK149063] | 89.5 |
| COc1cc(CNC(=O)c2ccc3[nH]ccc3c2)cc(OC)c1OC [CBK149073] | 91 |
| N#Cc1ccc(CNC(=O)c2ccc3[nH]ccc3c2)cc1 [CBK149078] | 87.8 |
| O=C(Nc1ccc2[nH]c(=O)[nH]c2c1)c1ccc2[nH]ccc2c1 [CBK149083] | 97.5 |
| CN1CCC(N2CCN(C(=O)c3ccc(-c4cccc(C(F)(F)F)c4)o3)CC2)CC1 [CBK149085] | 91.2 |
| Cc1onc(-c2ccc(Cl)cc2)c1C(=O)N1CCN(C2CCN(C)CC2)CC1 [CBK149087] | 97.1 |
| CN1CCC(N2CCN(C(=O)c3cnc(-c4ccccn4)nc3C(F)(F)F)CC2)CC1 [CBK149089] | 107 |
| CN1CCC(N2CCN(C(=O)c3ccccc3Nc3cccc(C(F)(F)F)c3)CC2)CC1 [CBK149097] | 88.7 |
| CN1CCC(N2CCN(C(=O)c3ccc4nc[nH]c4c3)CC2)CC1 [CBK149099] | 94.7 |
| O=c1cc(CN2CCC[C@@H]2CN2CCCC2)[nH]c(=O)[nH]1 [CBK149108] | 92.2 |
| O=C1NC(=O)C(CCCCN2CCC[C@@H]2CN2CCCC2)N1 (stereo partly shown) [CBK149110] | 93.4 |
| COc1cc(CN2CCC(C(=O)c3ccc(F)cc3)CC2)cc(OC)c1OC [CBK149112] | 99.5 |
| O=C(c1ccc(F)cc1)C1CCN(Cc2ccc(Cl)c(Cl)c2)CC1 [CBK149114] | 98.5 |
| NC(=O)CN1CCC(C(=O)c2ccc(F)cc2)CC1 [CBK149130] | 96.6 |
| O=C(c1ccc(F)cc1)C1CCN(Cc2ncc[nH]2)CC1 [CBK149135] | 90.1 |
| COc1ccc(OCCN2CCC(C(=O)c3ccc(F)cc3)CC2)cc1 [CBK149136] | 104 |
| O=C(CN1CCC(C(=O)c2ccc(F)cc2)CC1)c1ccsc1 [CBK149137] | 95.5 |
| CSCCN1CCC(C(=O)c2ccc(F)cc2)CC1 [CBK149145] | 89.4 |
| Nc1ncc(-c2ccc(C(=O)N3CCOCC3)cc2)nc1C(=O)Nc1ccccc1 [CBK149153] | 85.7 |
| Nc1ncc(-c2ccc(C(=O)N3CCOCC3)cc2)nc1C(=O)NC1CCCC1 [CBK149155] | 89.3 |
| Nc1ncc(-c2ccc(C(=O)N3CCOCC3)cc2)nc1C(=O)NCc1ccc(O)cc1 [CBK149161] | 109 |

| SMILES | viability at 28.5 h, 10 µM [%] |
| --- | --- |
| Cc1ccc(-c2oncc2C(=O)N2CCC(n3c(=O)[nH]c4ccccc43)CC2)cc1 [CBK149180] | 106 |
| CC(=O)Nc1ccc(-c2ccc(COC3CCN(C(=O)c4ccc(Cl)c(Cl)c4)CC3)cc2)cc1 [CBK149215] | 89.3 |
| CC(=O)Nc1ccc(-c2ccc(COC3CCN(C(=O)c4ccc(F)cc4F)CC3)cc2)cc1 [CBK149216] | 101 |
| CC(=O)Nc1ccc(-c2ccc(COC3CCN(C(=O)Cc4ccc(Cl)cc4)CC3)cc2)cc1 [CBK149218] | 94.6 |
| CC(=O)Nc1ccc(-c2ccc(COC3CCN(C(=O)Cc4ccc(C#N)cc4)CC3)cc2)cc1 [CBK149225] | 91.7 |
| COC(=O)c1ccc(-c2cc3ccccc3o2)nc1 [CBK149228T] | 85.9 |
| COC(=O)c1ccc(-c2ccsc2)nc1 [CBK149229] | 116 |
| CCc1ccc(-c2ccc(C(=O)OC)cn2)cc1 [CBK149232] | 95.2 |
| CCOC(=O)c1cccnc1-c1cc2ccccc2o1 [CBK149237] | 99.7 |
| CCOC(=O)c1cccnc1-c1ccc2[nH]ccc2c1 [CBK149238] | 99.7 |
| CCOC(=O)c1cccnc1-c1ccc(OC)c(OC)c1 [CBK149240] | 94.2 |
| CCOC(=O)c1cccc(-c2ccsc2)n1 [CBK149244] | 97.6 |
| CCOC(=O)c1cccc(-c2ccc(OC)c(OC)c2)n1 [CBK149247] | 95.4 |
| CCOC(=O)c1ccnc(-c2cc3ccccc3o2)c1 [CBK149253] | 101 |
| CC(C)(C)c1nc(-c2ccccc2)c2ccccn12 [CBK149256] | 101 |
| COc1ccc2[nH]cc(CC(=O)Nc3nc4c(OC)cccc4s3)c2c1 [CBK149279] | 97.8 |
| O=C(CC1CC1)NCc1ccc(-c2csnn2)cc1 [CBK149287] | 92.8 |
| O=C(NCc1ccc(-c2csnn2)cc1)c1ccco1 [CBK149289] | 89 |
| O=C(/C=C/c1ccc2c(c1)OCO2)NCc1ccc(-c2csnn2)cc1 [CBK149297] | 88.1 |
| O=C(NCc1ccc(-c2csnn2)cc1)c1ccc(Oc2ccccc2)cc1 [CBK149300] | 108 |
| O=C1CC(C(=O)NCc2ccc(-c3csnn3)cc2)c2ccccc21 (stereo not shown) [CBK149301] | 93.1 |

Same assay, conditions: human, hela cells, % viability, bulk resorufin, single well

| SMILES | viability at 28.5 h, 10 µM [%] |
| --- | --- |
| Cc1ccc(-c2oncc2C(=O)N2CCC(C#N)(c3ccccc3)CC2)cc1 [CBK149179] | 95.7 |
